Experiments:
HeLa = assay: Cell translocation experiment; assay type: cell-based, human; details: incubated 10 and 60 min, various dilutions, 37° C.
Description: (§1) The production of the fusion protein allowed a cell translocation experiment to be performed, to test the ability of the antennapedia-containing fusion protein to translocate across biological membranes. Two cell lines were used in this experiment, ASPC1 and HeLa (ASPC1—human pancreatic adenocarcinoma, HeLa—human cervical adenocarcinoma). The protein was incubated for 10 and 60 min on cells in various dilutions at 37° C. Translocation of the fusion protein was evident in both cell lines, even after only ten minutes of incubation.

ASPC1 = assay: Cell translocation experiment; assay type: cell-based, human; details: incubated 10 and 60 min, various dilutions, 37° C.
Description: as §1

P21 protein: P21 tumour suppressor protein expressed alone, without translocation factor; human P21 is SEQ ID NO:1
Translocation across cells (HeLa): did not appear to translocate
Translocation across cells (ASPC1): did not appear to translocate
